# Test results taken from US5204327A, “Treatment of cerebral edema with ANP pharmaceutical compositions” (Ashi Kasei Kogyo Kabushiki Kaisha, priority 1988, dated 1993).
# Tests used:
# [1] = system: ischemic cerebral edema caused by occlusion of middle cerebral artery; test: Effect on experimental ischemic cerebral edema (MCA occlusion, Tamura model); format: in vivo, male Wistar rats; settings: rats
# Experimental: Using 41 male Wistar rats weighing 250 to 350 g, model animals of ischemic cerebral edema caused by occlusion of middle cerebral artery (hereinafter referred to as "MCA") were prepared according to the method of Tamura et al. (Journal of Cerebral Blood Flow and Metabolism, 1, 53-69 (1981)).
# Peptide (II) obtained in Reference Example 1 was diluted with a physiological saline so that the peptide concentration became 100 μg/10 ml. The solution containing the peptide was continuously administered to eleven rats through the tail vein thereof in an amount of 10 ml per kg of body weight in 20 min so that the total dose of the administered peptide became 100 μg per kg of body weight.
# The administration was conducted 6 times according to the following program. The first administration was conducted 30 minutes after the occlusion of MCA. The second administration was conducted in the morning of the next day of the first administration (2nd day). The third administration was conducted after 6 hours from the second administration. The fourth administration was conducted in the morning of the next day of the third administration (3rd day). […]
# After one hour from the sixth administration, that is, 3 days after the rats had been subjected to occlusion of MCA, the rats were sacrificed. […] The water content of each of the hemispheres was measured.
# The water content of a brain tissue was calculated by the following formula: [formula] wherein: W1 : weight of the cerebral hemisphere (wet basis)
# W2 weight of the cerebral hemisphere (dry basis), which is measured after drying the wet cerebral hemisphere at 95° to 100° C. for 3 days.
# The water contents calculated were statistically analyzed by the T-test to determine whether or not there is a significant difference between the water content of each of the groups to which peptide (II), peptide (III) and glycerol were individually administered and the water content of the control group to which physiological saline was administered. […]
# [2] = system: vasogenic cerebral edema caused by cold injury; test: Effect on experimental vasogenic cerebral edema (cold injury); format: in vivo, male Crj:CD (SD) rats; settings: rats
# Experimental: Using 42 male Crj:CD (SD) rats weighing 300 to 400 g, model animals of vasogenic cerebral edema caused by cold injury were prepared according to the method of Naruse et al. (Brain and Nerve, 33 (6): 569-575 (1981)). (Administration method)
# Peptide (II) obtained in Reference Example 1 was diluted with a physiological saline so that the peptide concentration became […]. The solution containing the peptide was continuously administered to eleven rats through the tail vein thereof in an amount of […] of body weight so that the total dose of the administered peptide became 100 μg per kg of body weight, to thereby obtain a peptide (II)-administeredgroup.
# Peptide (III) was administered to eight rats in the same manner as described above except that peptide (III) was used instead of peptide (II), to thereby obtain a peptide (III)-administered group.
# As a control (solvent), 3 ml per kg of body weight of the physiological saline was administered to eleven rats in substantially the same manner as mentioned above, to thereby obtain a physiological saline-administered group.
# As a control for the peptide, an aqueous 10% w/v glycerol solution containing 5% w/v fructose and 0.9% w/v sodium chloride was administered to twelve rats so that the total volume of the administered solution became 10 ml per kg of body weight, to thereby obtain a glycerol-administered group.
# The administration of each of the peptide (II) solution, peptide (III) solution and physiological saline was started one hour before the making of cold injury and completed in 90 minutes. On the other hand, the administration of the glycerol solution was started 23 hours after the making of cold injury and completed in 30 minutes in accordance with the ordinary clinical method, so that the total volume of the administered glycerol solution became 10 ml/kg of body weight.
# 24 hours after the rats had been subjected to cold injury, rats were sacrificed under ether anesthesia. […]
# The water content of each of the hemispheres was measured in substantially the same manner as in Example 1. […]
# [3] = system: vasogenic cerebral edema caused by cold injury; test: Effect on experimental vasogenic cerebral edema (investigation of administration time); format: in vivo, male Crj:CD (SD) rats; settings: for Water content of injured cerebral hemisphere (the mean ± standard error): peptide 100 μg/kg, glycerol solution 10 ml/kg, 24 hours after injury
# Experimental: Using 212 male Crj:CD (SD) rats weighing 300 to 400 g, model animals of vasogenic cerebral edema caused by cold injury were prepared according to the method of Naruse et al. (Brain and Nerve, 33 (6): 569-575 (1981).
# Peptide (II) obtained in Reference Example 1 was diluted with a physiological saline so that the peptide concentration became […]. The solution containing the peptide was continuously administered to a predetermined number of rats through the tail vein thereof in an amount of 3 ml per kg of body weight in 90 min so that the total dose of the administered peptide became 100 μg per kg of body weight. Thus, there were obtained six peptide (II)-administered groups.
# As a control (solvent), 3 ml per kg of body, weight of the physiological saline was administered to a predetermined number of rats in substantially the same manner as mentioned above, to thereby obtain six physiological saline-administered groups.
# As a control for the peptide, an aqueous 10% w/v glycerol solution containing 5% w/v fructose and 0.9% w/v sodium chloride was administered to a predetermined number of rats in substantially the same manner as mentioned above so that the total volume of the administered solution became 10 ml per kg of body weight, to thereby obtain six glycerol-administered groups.
# 24 hours after the rats were subjected to injury, rats were exsanguinated under ether anesthesia to kill them. Then, cerebra were extracted from the killed rats and each of the cerebra was individually divided into two cerebral hemispheres, namely, a hemisphere having ischemic part and a hemisphere having no ischemic part. The water content of each of the hemispheres was measured in substantially the same manner as in Example 1. In Table 3, the mean and the standard error of the water content of a brain tissue are shown together with the number of rats (n) subjected to experiment in each group.
# [4] = 3 days after MCA occlusion, peptide 100 μg/kg (glycerol 1 g/kg) tail vein, 6 administrations
# [5] = 24 hours after cold injury, peptide 100 μg/kg tail vein started one hour before injury, 90 min, glycerol solution 10 ml/kg started 23 hours after injury
smiles,measurement,setting,value
"OCC(O)CO [Glycerol, glycerol]","Water content of brain tissue (the mean ± standard error), hemisphere having ischemic part",[1]; [4],79.34 ± 0.15
same,"Water content of brain tissue (the mean ± standard error), hemisphere having no ischemic part",[1]; [4],78.51 ± 0.14
same,"increase in water content of the cerebral hemisphere having ischemic part, compared to physiological saline-administered group","[1]; MCA occlusion, T-test",significantly inhibited
same,"Water content of brain tissue (the mean ± standard error), injured cerebral hemisphere",[2]; [5],80.65 ± 0.23
same,"Water content of brain tissue (the mean ± standard error), not injured cerebral hemisphere",[2]; [5],79.62 ± 0.19
same,"increase in water content of the injured cerebral hemisphere, compared to physiological saline-administered group",[2]; cold injury,not so markedly inhibited
same,"increase in water content of a cerebral hemisphere, compared to physiological saline-administered groups",[3]; administered just after making the cold injury,significantly inhibited
same,Water content of injured cerebral hemisphere (the mean ± standard error),[3]; administration 3 hours after the making of cold injury,81.08 ± 0.20
same,Water content of injured cerebral hemisphere (the mean ± standard error),[3]; administration 6 hours after the making of cold injury,81.24 ± 0.19
same,Water content of injured cerebral hemisphere (the mean ± standard error),[3]; administration 22 hours after the making of cold injury,81.05 ± 0.17
same,Water content of injured cerebral hemisphere (the mean ± standard error),[3]; administration during the making of cold injury,80.79 ± 0.10
same,Water content of injured cerebral hemisphere (the mean ± standard error),[3]; administration just after the making of cold injury,80.77 ± 0.14
same,Water content of injured cerebral hemisphere (the mean ± standard error),[3]; administration just before the making of cold injury,81.22 ± 0.20
same,"increase in water content of the injured cerebral hemisphere, compared to physiological saline-administered groups",[3]; remaining administration times (all except just after the cold injury),not significantly inhibited
